Our source for the Activity and zone of inhibition values is ChEMBL document CHEMBL1142597, “Arugosins G and H: prenylated polyketides from the marine-derived fungus Emericellanidulans var. acristata” (J Nat Prod, 2006).

Structures are written as SMILES. Calls of active or inactive are those of the source. The calls are words filed in the database; no cut-off is given here.

For data set [1], the system named is PBMC. In words: Stimulation of IL2 production in human PBMC at 0.1 ug/mL after 24 hrs by flow cytometry with cytometric bead array method. Format: functional, cell-based. For orientation: In flow cytometry, cells or beads pass a laser one at a time.
Data set [2] deals with PBMC. Nature of the data set: Stimulation of IL2 production in human PBMC at 1 ug/mL after 24 hrs by flow cytometry with cytometric bead array method. Format: functional, cell-based.
The test system of data set [3] is PBMC. In words: Stimulation of IL4 production in human PBMC at 0.1 ug/mL after 24 hrs by flow cytometry with cytometric bead array method. The class given is functional, cell-based.
Data set [4] concerns PBMC. In words: Stimulation of IL4 production in human PBMC at 1 ug/mL after 24 hrs by flow cytometry with cytometric bead array method. Format: functional, cell-based.
Data set [5] deals with PBMC. In words: Stimulation of IL6 production in human PBMC at 0.1 ug/mL after 24 hrs by flow cytometry with cytometric bead array method. The class given is functional, cell-based.
The subject of data set [6] is PBMC. In words: Stimulation of IL6 production in human PBMC at 1 ug/mL after 24 hrs by flow cytometry with cytometric bead array method. Format: functional, cell-based.
For data set [7], the system named is PBMC. In words: Stimulation of IL10 production in human PBMC at 0.1 ug/mL after 24 hrs by flow cytometry with cytometric bead array method. Format: functional, cell-based.
Data set [8] concerns PBMC. Nature of the data set: Stimulation of IL10 production in human PBMC at 1 ug/mL after 24 hrs by flow cytometry with cytometric bead array method. Format: functional, cell-based.
In data set [9] the test system is PBMC. Nature of the data set: Stimulation of TNFalpha production in human PBMC at 0.1 ug/mL after 24 hrs by flow cytometry with cytometric bead array method. The class given is functional, cell-based.
In data set [10] the test system is PBMC. In words: Stimulation of TNFalpha production in human PBMC at 1 ug/mL after 24 hrs by flow cytometry with cytometric bead array method. Format: functional, cell-based.
The subject of data set [11] is PBMC. In words: Stimulation of IFN-gamma production in human PBMC at 0.1 ug/mL after 24 hrs by flow cytometry with cytometric bead array method. The class given is functional, cell-based.
The test system of data set [12] is PBMC. In words: Stimulation of IFN-gamma production in human PBMC at 1 ug/mL after 24 hrs by flow cytometry with cytometric bead array method. The class given is functional, cell-based.
Data set [13] relates to PBMC. In words: Cytotoxicity against human PBMC at 0.1 ug/mL. The class given is cell-based.
Data set [14] relates to PBMC. In words: Cytotoxicity against human PBMC at 1 ug/mL. The class given is cell-based.
For another data set, the system named is Mycotypha microspora. In words: Antifungal activity against Mycotypha microspora at 50 ug/disk by agar diffusion assay. The class given is functional. The conditions noted are these: read-out: IZ. In general terms: In agar diffusion tests the substance spreads into inoculated agar from a disc or well.
The next data set concerns [Chlorella] fusca. Nature of the data set: Antialgal activity against 'Chlorella' fusca at 50 ug/disk by agar diffusion assay. The class given is functional. The note with it: Scenedesmus fuscus; read-out: IZ.

`CC(C)=CCOc1c(C)cc(O)c2c1C(O)Oc1ccc(CC=C(C)C)c(O)c1C2=O` (centres undefined) [ARUGOSIN A]: the outcome in the data set with PBMC [1], with PBMC [2], in the data set with PBMC [3], in the data set with PBMC [4], in the data set on PBMC [5] and in the data set on PBMC [6] was inactive. In addition, the result in the data set on PBMC [7], with PBMC [8], in the data set on PBMC [9], with PBMC [10], in the data set on PBMC [11] and in the data set with PBMC [12] was inactive. Also, the Activity result in the data set with PBMC [13] and in the data set on PBMC [14] was “Non-toxic” each time.
Take `CC(C)=CCOc1c(C)cc(O)c2c1C(O)Oc1c(CC=C(C)C)ccc(O)c1C2=O` (centres undefined) [ARUGOSIN B]: the result in the data set with PBMC [1], in the data set with PBMC [2], in the data set on PBMC [3], in the data set with PBMC [4], in the data set on PBMC [5] and in the data set with PBMC [6] was inactive. Besides, the result in the data set on PBMC [7], in the data set on PBMC [8], in the data set with PBMC [9], in the data set on PBMC [10], with PBMC [11] and with PBMC [12] was inactive. Further, the Activity entry in the data set on PBMC [13] and in the data set with PBMC [14] was “Non-toxic” throughout.
For `CC(C)=CCOc1c(C)cc(O)c2c1C(O)Oc1c(CC=C(C)C)cc(CC=C(C)C)c(O)c1C2=O` (centres undefined) [ARUGOSINS G], the outcome in the data set with PBMC [1], in the data set with PBMC [2], in the data set with PBMC [3], in the data set on PBMC [4], in the data set on PBMC [5] and with PBMC [6] was inactive. For the same molecule, the outcome in the data set on PBMC [7], with PBMC [8], in the data set with PBMC [9], in the data set on PBMC [10], in the data set on PBMC [11] and with PBMC [12] was inactive. In addition, the Activity entry in the data set on PBMC [13] and with PBMC [14] was “Non-toxic” each time.
`CC(C)=CCc1ccc(O)c(C(=O)c2c(O)cc(C)c(O)c2C=O)c1O` [ARUGOSINS H]: the zone of inhibition at 50 µg/disc in the data set on Mycotypha microspora is 3 mm; in [Chlorella] fusca, 2 mm. In addition, the result in the data set with PBMC [1], in the data set on PBMC [2], in the data set on PBMC [3], in the data set with PBMC [4], in the data set with PBMC [5] and with PBMC [6] was inactive. Besides, the outcome in the data set with PBMC [7], in the data set with PBMC [8], in the data set with PBMC [9], in the data set with PBMC [10], in the data set on PBMC [11] and in the data set with PBMC [12] was inactive. Besides, the Activity result in the data set with PBMC [13] and in the data set on PBMC [14] was “Non-toxic” throughout.
With `CC(C)=CCOc1c(C)cc2oc3c(CC=C(C)C)ccc(O)c3c(=O)c2c1CO` [EMERICELLIN], the result in the data set with PBMC [1], with PBMC [2], in the data set on PBMC [3], with PBMC [4], in the data set with PBMC [5] and in the data set on PBMC [6] was inactive. Besides, the result in the data set on PBMC [7], with PBMC [8], in the data set with PBMC [9], in the data set with PBMC [10], in the data set with PBMC [11] and in the data set on PBMC [12] was inactive. Further, the Activity result in the data set with PBMC [13] and in the data set with PBMC [14] was “Non-toxic” each time.
As to `C=C1CC[C@@H]2[C@](C)(CC[C@H](O)[C@@]2(C)CCC=C(C)C)[C@@H]1Cc1c[nH]c2ccccc12` [EMINDOLE DA], the result in the data set on PBMC [1], with PBMC [2], with PBMC [3], in the data set with PBMC [4], in the data set with PBMC [5] and in the data set on PBMC [6] was inactive. Further, the outcome with PBMC [7], with PBMC [8], in the data set with PBMC [9], in the data set with PBMC [10], in the data set on PBMC [11] and with PBMC [12] was inactive. The Activity entry in the data set on PBMC [13] and in the data set with PBMC [14] was “Non-toxic” in each case.
`O=C1OC(O)C(Cc2ccccc2)=C1c1ccccc1` (centres undefined) [MICROPERFURANONE]: the outcome with PBMC [1], in the data set with PBMC [2], in the data set on PBMC [3], in the data set on PBMC [4], in the data set with PBMC [5] and with PBMC [6] was inactive. Further, the outcome in the data set with PBMC [7], in the data set with PBMC [8], in the data set with PBMC [9], in the data set on PBMC [10], with PBMC [11] and in the data set on PBMC [12] was inactive. Moreover, the Activity entry in the data set with PBMC [13] and in the data set on PBMC [14] was “Non-toxic” in each case.
Regarding `C=C(C)[C@H]1COc2c(C)cc3oc4c(CC=C(C)C)ccc(O)c4c(=O)c3c2[C@@H]1O` [SHAMIXANTHONE], the result in the data set on PBMC [1], in the data set with PBMC [2], with PBMC [3], with PBMC [4], in the data set with PBMC [5] and in the data set on PBMC [6] was inactive. For the same molecule, the result in the data set with PBMC [7], with PBMC [8], in the data set on PBMC [9], in the data set on PBMC [10], in the data set on PBMC [11] and in the data set with PBMC [12] was inactive. Also, the Activity entry in the data set on PBMC [13] and in the data set on PBMC [14] was “Non-toxic” in each case.
